Measured values taken from patent US20240092779A1, “USP1 INHIBITORS AND USES THEREOF” (Zentaur Therapeutics USA Inc., priority 2022, published 2024).

Experiments:
[1] = biological target: T1, recombinant USP1/UAF1 enzyme complex (Homo sapiens, UniProt O94782); assay: Enzyme assay: deubiquitinase fluorometric assay with ubiquitin-Rhodamine substrate; format: biochemical; conditions: USP1/UAF1, Ub-Rho110 substrate, 2 hours preincubation, 1 hour reaction
T1 construct: purchased Biortus
Description: Enzymatic inhibitory potency of the compounds was assessed in a deubiquitinase fluorometric assay using ubiquitin-Rhodamine (Ub-Rho110, R&D Systems) as substrate and the recombinant USP1/UAF1 enzyme complex (Biortus). Assays were performed in a final volume of 12 μL using black 384-well plates (Corning #4514) containing 50 mM HEPES (pH 7.5, BioRoYee), 0.5 mM EDTA, 1 mM dithiothreitol, 0.1 mg/mL bovine serum albumin, 50 nM Ub-Rhol10, 0.004 nM USP1/UAF1, and series diluted compounds from 10 μM to 0.5 nM (10 dilution steps). Assay-ready plates containing 40 nL of Echo-dispensed compound in DMSO were reconstituted with 2 μL of ddH2O, then 5 μL of USP1/UAF1 enzyme mixture was added and preincubated at room temperature for 2 hours. Enzymatic reaction was initiated by the addition of […] substrate mixture and assay allowed to proceed for 1 hour at room temperature before quenching with 3 μL of 150 mM citric acid. Fluorescence signal was detected via TECAN SPARK with excitation at 485 nm and emission at 535 nm. Data analysis was done using GraphPad Prism8 and IC50 values were obtained by 4-parameter logistic curve fitting.
Certain compounds were tested in the assays.

HCC1806 Ub-PCNA (USP1) = assay: USP1 Western Blot Protocol (HCC1806 Ub-PCNA); format: cell-based; conditions: Homo sapiens, HCC1806 cells, 4 hours
Method in brief: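 HCC1806 cells seeded overnight, then treated 4 h at 37 °C with a 5-point, 4-fold dilution series (0.1% DMSO). Lysates immunoblotted for Ub-PCNA with fluorescent detection; inhibition expressed as % vehicle from Ub-PCNA upregulation, IC50 by four-parameter logistic fit.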

MDA-MB-436 cells = assay: CTG Protocol (MDA-MB-436 GI50), antiproliferative activity; format: cell-based, human; conditions: Homo sapiens, 168 h; MDA-MB-436 cells (BRCA1 mutation), 7-day incubation, CellTiter-Glo
Method in brief: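 BRCA1-mutant MDA-MB-436 cells were seeded at 1000 cells/well in DMEM, left overnight, then exposed to a 9-point, 3-fold compound series for 7 days at 37 °C, 5% CO2. Viability was read by CellTiter-Glo luminescence. % inhibition was plotted against concentration to derive GI50.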

[2] = Liver microsomal stability (HLM); format: in vitro ADME; conditions: human, liver microsomes, human liver microsomes 0.5 mg/mL, 1 μM compound, NADPH

T1 sequence (O94782 whole entry): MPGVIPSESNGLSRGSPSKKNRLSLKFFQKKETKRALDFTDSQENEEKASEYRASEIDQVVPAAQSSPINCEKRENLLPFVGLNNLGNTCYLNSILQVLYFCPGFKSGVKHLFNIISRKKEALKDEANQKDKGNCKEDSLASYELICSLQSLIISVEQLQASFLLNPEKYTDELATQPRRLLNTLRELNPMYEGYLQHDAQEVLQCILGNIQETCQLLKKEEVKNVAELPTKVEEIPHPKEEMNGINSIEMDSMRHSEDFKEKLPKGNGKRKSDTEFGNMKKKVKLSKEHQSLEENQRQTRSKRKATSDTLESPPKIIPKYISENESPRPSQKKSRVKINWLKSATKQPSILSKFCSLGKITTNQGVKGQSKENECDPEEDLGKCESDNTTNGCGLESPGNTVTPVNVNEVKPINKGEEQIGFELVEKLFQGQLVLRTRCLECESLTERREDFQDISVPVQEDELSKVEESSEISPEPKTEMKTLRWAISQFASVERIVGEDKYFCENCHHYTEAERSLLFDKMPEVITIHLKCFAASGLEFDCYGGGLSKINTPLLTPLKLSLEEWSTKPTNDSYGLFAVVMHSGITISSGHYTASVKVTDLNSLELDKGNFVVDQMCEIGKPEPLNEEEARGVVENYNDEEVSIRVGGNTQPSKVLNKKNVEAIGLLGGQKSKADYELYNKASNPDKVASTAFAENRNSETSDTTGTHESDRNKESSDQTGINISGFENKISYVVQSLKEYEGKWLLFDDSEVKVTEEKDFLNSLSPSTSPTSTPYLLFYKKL
T1 sequence (Q8TAF3 whole entry partner): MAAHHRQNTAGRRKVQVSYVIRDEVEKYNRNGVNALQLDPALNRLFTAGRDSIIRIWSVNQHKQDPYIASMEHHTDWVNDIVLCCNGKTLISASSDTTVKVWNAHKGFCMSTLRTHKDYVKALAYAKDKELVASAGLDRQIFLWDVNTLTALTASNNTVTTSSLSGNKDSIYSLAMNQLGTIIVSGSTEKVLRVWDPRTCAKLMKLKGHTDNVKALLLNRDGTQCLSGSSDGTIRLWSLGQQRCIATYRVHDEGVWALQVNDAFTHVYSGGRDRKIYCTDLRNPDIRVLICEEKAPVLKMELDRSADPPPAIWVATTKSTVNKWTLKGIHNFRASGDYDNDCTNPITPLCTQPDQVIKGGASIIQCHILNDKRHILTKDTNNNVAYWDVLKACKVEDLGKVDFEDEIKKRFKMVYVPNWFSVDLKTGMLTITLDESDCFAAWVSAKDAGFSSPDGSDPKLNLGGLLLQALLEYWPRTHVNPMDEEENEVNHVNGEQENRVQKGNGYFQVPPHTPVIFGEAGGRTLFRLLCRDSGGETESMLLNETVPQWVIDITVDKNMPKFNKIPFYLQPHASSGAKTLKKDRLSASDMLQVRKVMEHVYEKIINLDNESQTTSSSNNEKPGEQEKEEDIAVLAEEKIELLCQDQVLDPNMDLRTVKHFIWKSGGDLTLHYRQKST

Structure (SMILES)	IC50 [1]	IC50 (HCC1806 Ub-PCNA (USP1))	GI50 (MDA-MB-436 cells)	microsomal CLint at 1 μM [2]
COc1ncnc(C2CC2)c1-c1ncc2ccc(=O)n(Cc3ccc(-c4ncccc4N4CCN(C)CC4)cc3)c2n1 [Compound 85, 2-(4-cyclopropyl-6-methoxypyrimidin-5-yl)-8-({4-[3-(4-methylpiperazin-1-yl)pyridin-2-yl]phenyl}methyl)pyrido[2,3-d]pyrimidin-7-one]	10 to 100 nM	100 to 1000 nM	10 to 100 nM	
COc1ncnc(C2CC2)c1-c1ncc2c(=O)n(C)c(=O)n(Cc3ccc(-c4nc(C(F)(F)F)cn4C(C)C)cc3)c2n1 [Compound I-26, 7-(4-cyclopropyl-6-methoxypyrimidin-5-yl)-1-({4-[1-isopropyl-4-(trifluoromethyl)imidazol-2-yl]phenyl}methyl)-3-methylpyrimido[4,5-d][1,3]diazine-2,4-dione]	10 to 100 nM	100 to 1000 nM	10 to 100 nM	
CCn1cc(C(F)(F)F)nc1-c1ccc(Cn2c(=O)cnc3cnc(-c4c(OC)ncnc4C4CC4)nc32)cc1 [Compound I-28]	10 to 100 nM	< 10 nM	< 10 nM	
COc1ncnc(C2CC2)c1-c1ncc2ccc(=O)n(Cc3ccc(-c4ncccc4OC(C)C)cc3)c2n1 [Compound I-33]	10 to 100 nM	10 to 100 nM	10 to 100 nM	≥ 50 µL/min/mg
COc1ncnc(C2CC2)c1-c1ncc2ccc(=O)n(Cc3ccc(-c4nc(C)ccc4F)cc3)c2n1 [Compound I-35]	100 to 1000 nM	10 to 100 nM	10 to 100 nM	
CCn1cc(C(F)(F)F)nc1-c1ccc(Cn2c(=O)c(Br)cc3cnc(-c4c(OC)ncnc4C4CC4)nc32)cc1 [Compound I-38, 6-Bromo-2-(4-Cyclopropyl-6-Methoxypyrimidin-5-Yl)-8-({4-[1-Ethyl-4-(Trifluoromethyl)Imidazol-2-Yl]Phenyl}Methyl)Pyrido[2,3-d]Pyrimidin-7-One]	10 to 100 nM	10 to 100 nM	10 to 100 nM	
COc1ncnc(C2CC2)c1-c1ncc2ccc(=O)n(Cc3ccc(-c4cccc(C(F)(F)F)c4)cc3)c2n1 [Compound I-42]	100 to 1000 nM	100 to 1000 nM	100 to 1000 nM	
CC(C)n1ncc(Cl)c1-c1ncc2ccc(=O)n(Cc3ccc(-c4nc(C(F)(F)F)cn4C)cc3)c2n1 [Compound I-44, 2-(4-Chloro-2-Isopropylpyrazol-3-Yl)-8-({4-[1-Methyl-4-(Trifluoromethyl)Imidazol-2-Yl]Phenyl}Methyl)Pyrido[2,3-d]Pyrimidin-7-One]	10 to 100 nM	10 to 100 nM	10 to 100 nM	
COc1ncnc(C)c1-c1ncc2ccc(=O)n(Cc3ccc(-c4nc(C(F)(F)F)cn4C)cc3)c2n1 [Compound I-46, 2-(4-Methoxy-6-Methylpyrimidin-5-Yl)-8-({4-[1-Methyl-4-(Trifluoromethyl)Imidazol-2-Yl]Phenyl}Methyl)Pyrido[2,3-d]Pyrimidin-7-One]	100 to 1000 nM	100 to 1000 nM	100 to 1000 nM	
CCc1ncnc(OC)c1-c1ncc2ccc(=O)n(Cc3ccc(-c4nc(C(F)(F)F)cn4C)cc3)c2n1 [Compound I-48, 2-(4-Ethyl-6-Methoxypyrimidin-5-Yl)-8-({4-[1-Methyl-4-(Trifluoromethyl)Imidazol-2-Yl]Phenyl}Methyl)Pyrido[2,3-d]Pyrimidin-7-One]	10 to 100 nM	10 to 100 nM	10 to 100 nM	
Cc1ncnc(C2CC2)c1-c1ncc2ccc(=O)n(Cc3ccc(-c4nc(C(F)(F)F)cn4C)cc3)c2n1 [Compound I-49, 2-(4-Cyclopropyl-6-Methylpyrimidin-5-Yl)-8-({4-[1-Methyl-4-(Trifluoromethyl)Imidazol-2-Yl]Phenyl}Methyl)Pyrido[2,3-d]Pyrimidin-7-One]	10 to 100 nM	100 to 1000 nM	100 to 1000 nM	
COc1ncnc(C2CC2)c1-c1ncc2ccc(=O)n(Cc3ccc(-c4nc(C(F)(F)F)cn4C)cc3)c2c1F [Compound I-50, 7-(4-cyclopropyl-6-methoxypyrimidin-5-yl)-8-fluoro-1-({4-[1-methyl-4-(trifluoromethyl)imidazol-2-yl]phenyl}methyl)-1,6-naphthyridin-2-one]	10 to 100 nM	10 to 100 nM	10 to 100 nM	

The remaining lines, values ahead:

IC50 [1]	IC50 (HCC1806 Ub-PCNA (USP1))	GI50 (MDA-MB-436 cells)	microsomal CLint at 1 μM [2]	Structure (SMILES)
10 to 100 nM	10 to 100 nM	10 to 100 nM	≥ 50 µL/min/mg	COc1ncnc(C2CC2)c1-c1ncc2c(n1)N(Cc1ccc(-c3nc(C(F)(F)F)cn3C(C)C)cc1)C(=O)NC2 [Compound I-24]
10 to 100 nM	10 to 100 nM	10 to 100 nM	≥ 50 µL/min/mg	COc1ncnc(C2CC2)c1-c1ncc2c(n1)N(Cc1ccc(-c3nc(C(F)(F)F)cn3C(C)C)cc1)C(=O)N(C)C2 [Compound I-25]
10 to 100 nM	10 to 100 nM	10 to 100 nM		CCn1cc(C(F)(F)F)nc1-c1ccc(Cn2c(=O)c(C(=O)N3CCN(C)CC3)cc3cnc(-c4c(OC)ncnc4C4CC4)nc32)cc1 [Compound I-30, 2-(4-Cyclopropyl-6-Methoxypyrimidin-5-Yl)-8-({4-[1-Ethyl-4-(Trifluoromethyl)Imidazol-2-Yl]Phenyl}Methyl)-6-(4-Methylpiperazine-1-Carbonyl)Pyrido[2,3-d]Pyrimidin-7-One]
100 to 1000 nM	> 1000 nM	> 1000 nM		COc1ncnc(C2CC2)c1-c1ncc2ccc(=O)n(Cc3ccc(-c4nccc(C(F)(F)F)n4)cc3)c2n1 [Compound I-34]
10 to 100 nM	10 to 100 nM	10 to 100 nM		COc1ncnc(OC)c1-c1ncc2ccc(=O)n(Cc3ccc(-c4nc(C(F)(F)F)cn4C)cc3)c2n1 [Compound I-47, 2-(4,6-Dimethoxypyrimidin-5-Yl)-8-({4-[1-Methyl-4-(Trifluoromethyl)Imidazol-2-Yl]Phenyl}Methyl)Pyrido[2,3-d]Pyrimidin-7-One]
100 to 1000 nM	100 to 1000 nM	100 to 1000 nM		COc1ncnc(C2CC2)c1-c1ncc2ccc(=O)n(Cc3ccc(-c4cncc(C(F)(F)F)n4)cc3)c2n1 [Compound I-51, 2-(4-cyclopropyl-6-methoxypyrimidin-5-yl)-8-({4-[6-(trifluoromethyl)pyrazin-2-yl]phenyl}methyl)pyrido[2,3-d]pyrimidin-7-one]
